Assay results reported in article PMC6918687, “Pharmacological inhibition of TAK1, with the selective inhibitor takinib, alleviates clinical manifestation of arthritis in CIA mice” (Arthritis Research & Therapy, 2019).
Read-outs that look alike come from different tables or passages of the source.

How the values were obtained:
[1] = system: RA-FLS cells; assay: Cell viability assay (Cell Titer Glo 2.0) in RA-FLS cells; format: cell-based
Protocol: RA-FLS cells were cultured and treated as previously described. Briefly, cells were plated at 80% confluency ~ 10^4 in 96-well plates and treated with either takinib at various concentrations or takinib + TNF (30 ng/mL) for 24 or 48 h and compared to vehicle-treated samples. Cell death was quantified using Cell Titer Glo 2.0 (Promega) according to the manufacturer’s protocol.

[2] = system: RA-FLS cells; assay: Phospho-kinase proteome array, TNF-stimulated RA-FLS cells; format: cell-based, human; conditions: takinib 10 μM, TNF 30 ng/mL 30 min
Protocol: Rheumatoid arthritis fibroblast-like synoviocytes (RA-FLS) cells were prepared from surgical synovial samples at the University of Michigan as previously described. Cells were isolated from 4 individual patients (3 female, 1 male) and passaged no more than 2 times before use. Cells were cultured in CRML media, 10% FBS, 1% penicillin-streptomycin (PS), and 1% glutamate.
Briefly, 10^6 cells were plated and either no treatment (naïve) or pretreated with takinib (10 μM) or vehicle (DMSO) for 30 min prior to stimulation with TNF (30 ng/mL) for 30 min at 37 °C in 5% CO2 for phospho-kinase assay (R&D Systems). NF-κB and cytokine assays were performed as previously described; however, cells were incubated for 24 h post-TNF (30 ng/mL) or LPS (10 ng/mL) stimulation.

[3] = system: CIA mice; assay: Type II collagen-induced arthritis (CIA) mouse model: clinical arthritis score and body weight; format: in vivo, DBA/1 mice; conditions: for % Inhibition from Vehicle Disease (clinical score AUC): day 36
Protocol: The DBA/1 CIA model was conducted in accordance with The Guide for the Care & Use of Laboratory Animals (8th Edition) and therefore in accordance with all Bolder BioPATH IACUC approved policies and procedures. The Bolder Biopath IACUC approved a “blanket” IACUC protocol for this specific working protocol (BBP-001). No acceptable alternative test systems were identified for the animals used in this study. […] Clinical evaluation was performed under experimenter blinded conditions.
Collagen was prepared as a 4 mg/ml solution in 0.01 N acetic acid. Equal volumes of 4 mg/ml collagen and 5 mg/ml Freund’s complete adjuvant were emulsified by hand mixing with syringes for approximately 5 min, at which point a bead of this material holds its form when placed in water. On study days 0 and 21, animals were anesthetized with isoflurane and given intradermal injections of a total of 400 μg of type II collagen in Freund’s complete adjuvant at the base of the tail.
Mice were randomized by body weight into treatment groups on study day 18. Treatment was initiated following enrollment. On study day 36, the mice were euthanized for necropsy. Clinical scores were given for each of the paws (right front, left front, right rear, left rear) on study days 18–36. Experimenter was blinded from the treatment group during clinical evaluation and scoring.

[4] = Pharmacokinetics of takinib by LC-MS in plasma and tissues; format: in vivo, C3-tag mice; conditions: C3 tagged mice; for half-life: C3-tag, mouse, ip
Protocol: C3-tag mice were injected intraperitoneally (i.p.) with 50/75mpk takinib and sacrificed at 0, 1 h, 2 h, 4 h, 8 h, 16 h, and 24 h. At the indicated time points, the heart, spleen, kidney, liver, tumor, blood, plasma, muscle, and lung were harvested. All samples were frozen and stored at − 80 °C. Before quantifying the takinib in serum, a standard curve was constructed using HS-219, a close structural analog of takinib that serves as an internal standard. This internal standard solution was used for tissue homogenization. LC-MS analysis was performed at the Duke Proteomics and Metabolomics Core Facility. The final concentration of takinib in the plasma was calculated per milliliter of plasma.
GraphPad Prism 7 was used for statistical analysis of clinical score comparisons, histological analysis, and plasma concentrations. Two-way ANOVA followed by Dunnett’s multiple comparison test was performed for mean clinical score sum (Fig. 1); weight change over time (Fig. 1); joint score sum for all joints, knees, and forepaw and hind paw (Figs. 2, 3); protein analysis (Figs. 5, 6); and cell survival (Fig. 6g). A linear regression of LC-MS data on takinib was used for PK studies. T½ was determined by non-linear one-phase decay curves. Student T tests were performed for periosteal bone width (Additional file 1: Figure S2) and cell survival (Fig. 6f, g). An alpha of 0.05 was used for all statistical analysis.

Compound: CCCn1/c(=N/C(=O)c2cccc(C(N)=O)c2)[nH]c2ccccc21 [takinib]
- cell death vs vehicle control ([1]; 10 μM takinib alone, 48 h, p < 0.002): significant amount of cell death
- cytotoxicity in the presence of TNF ([1]; takinib at varying doses + TNF 30 ng/mL, 24 and 48 h): Minimal cytotoxicity
- AMPKα1 phosphorylation, array signal, Mean ([2]; n=4): 111.9564
- AMPKα2 phosphorylation, array signal, Mean ([2]; n=4): 187.6195
- Akt 1/2/3 (pS473) array signal, Mean ([2]; n=4): 39.51
- Akt 1/2/3 (pT308) array signal, Mean ([2]; n=4): 122.7503
- CREB phosphorylation, array signal, Mean ([2]; n=4): 232.3464
- Chk-2 phosphorylation, array signal, Mean ([2]; n=4): 86.85
- EGF R phosphorylation, array signal, Mean ([2]; n=4): 60.59
- ERK1/2 phosphorylation, array signal, Mean ([2]; n=4): 95.02
- FAK phosphorylation, array signal, Mean ([2]; n=4): 142.7814
- Fgr phosphorylation, array signal, Mean ([2]; n=4): 41.73
- Fyn phosphorylation, array signal, Mean ([2]; n=4): 78.9
- GSK-3α/β phosphorylation, array signal, Mean ([2]; n=4): 191.6206
- HSP27 phosphorylation, array signal, Mean ([2]; n=4): 202.916
- HSP60 array signal, Mean ([2]; n=4): 40.313
- Hck phosphorylation, array signal, Mean ([2]; n=4): 119.1771
- JNK 1/2/3 phosphorylation, array signal, Mean ([2]; n=4): 100.6526
- Lck phosphorylation, array signal, Mean ([2]; n=4): 44.393
- Lyn phosphorylation, array signal, Mean ([2]; n=4): 69.34
- MSK1/2 phosphorylation, array signal, Mean ([2]; n=4): 239.7188
- PDGF Rβ phosphorylation, array signal, Mean ([2]; n=4): 50.4425
- PLC-γ1 phosphorylation, array signal, Mean ([2]; n=4): 34.4325
- PRAS40 phosphorylation, array signal, Mean ([2]; n=4): 244.5596
- PYK2 phosphorylation, array signal, Mean ([2]; n=4): 87.75
- RSK1/2/3 phosphorylation, array signal, Mean ([2]; n=4): 168.3928
- STAT2 phosphorylation, array signal, Mean ([2]; n=4): 200.5311
- STAT3 (pS727) array signal, Mean ([2]; n=4): 95.82
- STAT3 (pY705) array signal, Mean ([2]; n=4): 85.93
- STAT5a phosphorylation, array signal, Mean ([2]; n=4): 99.7
- STAT5a/b phosphorylation, array signal, Mean ([2]; n=4): 146.267
- STAT5b phosphorylation, array signal, Mean ([2]; n=4): 154.004
- STAT66 phosphorylation, array signal, Mean ([2]; n=4): 147.8809
- Src phosphorylation, array signal, Mean ([2]; n=4): 176.3574
- TOR phosphorylation, array signal, Mean ([2]; n=4): 129.6068
- WNK1 phosphorylation, array signal, Mean ([2]; n=4): 218.9865
- Yes phosphorylation, array signal, Mean ([2]; n=4): 124.3601
- c-Jun phosphorylation, array signal, Mean ([2]; n=4): 196.6019
- eNOS phosphorylation, array signal, Mean ([2]; n=4): 41.6005
- p27 phosphorylation, array signal, Mean ([2]; n=4): 40.56
- p38α phosphorylation, array signal, Mean ([2]; n=4): 59.41
- p53 (pS15) array signal, Mean ([2]; n=4): 47.48
- p53 (pS46) array signal, Mean ([2]; n=4): 126.377
- p53 (pS392) array signal, Mean ([2]; n=4): 83.6435
- p70 S6 Kinase (T389) array signal, Mean ([2]; n=4): 78.65
- p70 S6 Kinase (site not given) array signal, Mean ([2]; n=4): 110.3643
- β-Catenin array signal, Mean ([2]; n=4): 57.16
- number of human kinases with significantly reduced phosphorylation ([2]; 45 phospho-kinase proteins profiled): 21
- % Inhibition from Vehicle Disease (clinical score AUC) ([3]; CIA DBA/1 mice, takinib 50 mg/kg i.p. daily): 32%
- % Inhibition from Vehicle Disease (clinical score AUC) ([3]; CIA DBA/1 mice, takinib 50 mg/kg i.p. daily, listed as Takinib): 32% (p=0.08)
- Mean Clinical Arthritic Score (AUC) ([3]; CIA DBA/1 mice, takinib 50 mg/kg i.p. daily, evaluated at day 36): 14.19
- less overall body weight loss compared to vehicle control ([3]; CIA mice, 50 mg/kg i.p. daily, at termination of the study, p = 0.009): 50%
- mean daily clinical arthritis scores vs vehicle disease control ([3]; CIA mice, 50 mg/kg i.p. daily, days 30–36): significantly differed
- half-life ([4]; heart, 50 mg/kg, 50 mpk i.p., read-out: half-life, heart (converted)): 16 min
- half-life ([4]; heart, 75 mg/kg, 75 mpk i.p., read-out: half-life, heart (converted)): 14.4 min
- half-life ([4]; muscle, 50 mg/kg, 50 mpk i.p., read-out: half-life, muscle (converted)): 8.82 min
- half-life ([4]; muscle, 75 mg/kg, 75 mpk i.p., read-out: half-life, muscle (converted)): 5.64 min
- half-life ([4]; plasma, 50 mg/kg, 50 mpk i.p., read-out: half-life, plasma (converted)): 15.4 min
- half-life ([4]; plasma, 75 mg/kg, 50 or 75 mg/kg i.p., read-out: plasma (serum) clearance t½): 21 min
- half-life ([4]; plasma, 75 mg/kg, 75 mpk i.p., read-out: half-life, plasma (converted)): 28.2 min
- half-life ([4]; spleen, 50 mg/kg, 50 mpk i.p., read-out: half-life, spleen (converted)): 279 min
- half-life ([4]; tumor, 50 mg/kg, 50 mpk i.p., read-out: half-life, tumor (converted)): 22.1 min
- half-life ([4]; tumor, 75 mg/kg, 75 mpk i.p., read-out: half-life, tumor (converted)): 9.94 min
- half-life, spleen ([4]; 50 mpk i.p., 50 mg/kg): 277.6 min
